Results as given in paper PMC12512194, “The Allosteric Regulator Inositol Phosphate Dramatically Affects the Efficacy and Selectivity of Inhibitors for Different HDAC Complexes” (Journal of the American Chemical Society, 2025).
Where two headings read alike, the source gives them in different places.

Columns and labels:
Assay type in all cases: biochemical
[1] = molecular target: T1, HDAC3-SMRT (Homo sapiens, UniProt O15379); test: fluorescent HDAC assay (Boc-(Ac)Lys-AMC), HDAC3-SMRT complex
T1 construct: We used HDAC complexes with the most components that could be stably expressed, with full-length proteins where feasible; made in house; host or cells: HEK293F
Method: (§1) Class I HDAC complexes were expressed and purified from mammalian HEK293F cells. […] We explored seven different HDAC complexes: five with HDAC1 (CoREST, MIER1, MiDAC, NuRD, and RERE); one with HDAC2 (CoREST), and one with HDAC3 (SMRT). Complexes ranged from having two components (HDAC1-RERE) to four components (HDAC1-NuRD) (Figure A, Table S1). […]
(§2) was resuspended in 4 mL of cleavage buffer. 30 -40 µL of 1.2 mg/mL Tobacco etch virus ( TEV) protease was added to the mixture and incubated overnight at 4 °C. After T EV cleavage, the protein was concentrated to 500 µL using the 4 mL Amicon®Ultra centrifugal fi lter (Merck Millipore) with a membrane nominal molecular weight cut off of 10 kDa. The concentrated protein was then filtered through a 0.22 µm centrifugal filter (Merck Millipore).
(§3) The complexes were purified on the AKTA purifier system (GE Healthcare) using either Superose 6 (10/300 GL) or Superdex 200 (10/300 GL) columns (GE Healthcare), which were equilibrated in the […]
(§4) Fractions were collected in a 96 -well plate (0.5 mL per fraction). 10 µL of sample from the fraction s, […]
(§5) analysis by SDS-PAGE gel. […]
(§6) the bottom of gel. SeeBlue Plus2 pre-stained marker (Invitrogen) was used as the molecular weight marker and the gel was stained using Instant Blue Coomassie Stain (Expedeon). Fractions containing purified protein complex were concentrated using the 0.5 mL Amicon Ultra centrifugal filter (Merck Millipore) with a membrane nominal molecular weight cut off of 10 kDa. Concentration of the protein was determined using a protein assay dye reagent (Bio-Rad). 200 µL of the reagent was diluted in 800 µL of ddH2O and used as a reagent blank. 2 µL of the protein sample was then added into the mixture […]
(§7) The concentration of the protein sample in mg/mL was then calculated by multiplying by ‘17’, which represents a factor calculated from a BSA standard curve. […]
(§8) before being transferred to a freezer at −80 °C.
(§9) HDAC activity and inhibition experiments against class I HDAC complexes were carried out using a […]
(§10) final reaction volume of 50 μL. 100 μM of Boc - (Ac)Lys -AMC was used as a substrate in each well.
(§11) All determinations were performed in triplicate. The inhibitors were dissolved at 50 mM in DMSO, and then further diluted with 10% DMSO HDAC assay buffer (10% DMSO, 50 mM Tris pH 7.5, 50 mM NaCl, 0.1 mg/mL BSA) to micromo lar concentrations. Serial dilutions of compounds were then carried out using 10% DMSO HDAC assay buffer to afford a range of concentrations. 10 μL of each of these […]
(§12) nM final concentration ) dissolved in HDAC assay buffer (50 mM Tris pH 7.5, 50 mM NaCl, 0.1 mg/mL BSA). […]
(§13) complex and inhibitor were then incubated at 20 °C, 100 RPM for 2 hours . […] Fluorescence intensity was determined with the Victor […]
(§14) IC50 values were calculated using GraphPad

[2] = molecular target: T2, HDAC2-CoREST (Homo sapiens, UniProt Q92769); test: fluorescent HDAC assay (Boc-(Ac)Lys-AMC), HDAC2-CoREST complex
T2 construct: We used HDAC complexes with the most components that could be stably expressed, with full-length proteins where feasible; made in house; host or cells: HEK293F
Method: as §1, §2, §3, §4, §5, §6, §7, §8, §9, §10, §11, §12, §13, §14

[3] = system: class I HDAC complexes; test: fluorescent HDAC assay, summaries over groups of complexes; settings: for IC50: without InsP6
Method: as §1, §2
The complexes were purified on the AKTA purifier system (GE Healthcare) using either Superose 6 (10/300 GL) or Superdex 200 (10/300 GL) columns (GE Healthcare), which were equilibrated in the gel filtration buffer (25 mM Tris/Cl pH 7.5, 50 mM KOAc, 0.5 mM TCEP) before sample loading.
as §4, §5, §6, §7, §8, §9, §10, §11
(§15) nM final concentration ) dissolved in HDAC assay buffer (50 mM Tris pH 7.5, 50 mM NaCl, 0.1 mg/mL BSA). For the inhibition experiments with inositol phosphates, HDAC complex was pre -incubated with inositol hexaphosphate (100 µM final concentration ) for 30 minutes at room temperature. The HDAC […]
(§16) complex and inhibitor were then incubated at 20 °C, 100 RPM for 2 hours . After incubation, 10 μL of the Boc -(Ac)Lys -AMC substrate, dissolved in HDAC assay buffer, was added to each well. The plate was incubate d at 30 °C, 100 RPM for 1 hour, followed by addition of 50 μL of a developer buffer (50 mM Tris pH 7.5, 100 mM NaCl, 10 mg/mL trypsin) to quench the reaction. The reaction was allowed to develop for 10 minutes at 30 °C, 100 RPM. Fluorescence intensity was determined with the Victor […]
as §14

[4] = molecular target: T3, HDAC1-RERE (Homo sapiens, UniProt Q13547); test: fluorescent HDAC assay (Boc-(Ac)Lys-AMC), HDAC1-RERE complex
T3 construct: We used HDAC complexes with the most components that could be stably expressed, with full-length proteins where feasible; made in house; host or cells: HEK293F
Method: as §1, §2, §3, §4, §5, §6, §7, §8, §9, §10, §11, §15, §16, §14

[5] = molecular target: T4, HDAC1-NuRD (Homo sapiens, UniProt Q13547); test: fluorescent HDAC assay (Boc-(Ac)Lys-AMC), HDAC1-NuRD complex; settings: for IC50: IC50 HDAC1-NuRD
T4 construct: We used HDAC complexes with the most components that could be stably expressed, with full-length proteins where feasible; made in house; host or cells: HEK293F
Method: as §1, §2, §3, §4, §5, §6, §7, §8, §9, §10, §11, §15, §16, §14

[6] = molecular target: T5, HDAC1-MiDAC (Homo sapiens, UniProt Q13547); test: fluorescent HDAC assay (Boc-(Ac)Lys-AMC), HDAC1-MiDAC complex
T5 construct: We used HDAC complexes with the most components that could be stably expressed, with full-length proteins where feasible; made in house; host or cells: HEK293F
Method: as §1, §2, §3, §4, §5, §6, §7, §8, §9, §10, §11, §15, §16, §14

[7] = molecular target: T6, HDAC1-CoREST (Homo sapiens, UniProt Q13547); test: fluorescent HDAC assay (Boc-(Ac)Lys-AMC), HDAC1-CoREST complex
T6 construct: We used HDAC complexes with the most components that could be stably expressed, with full-length proteins where feasible; made in house; host or cells: HEK293F
Method: as §1, §2, §3, §4, §5, §6, §7, §8, §9, §10, §11, §15, §16, §14

[8] = molecular target: T7, HDAC1-MIER1 (Homo sapiens, UniProt Q13547); test: fluorescent HDAC assay (Boc-(Ac)Lys-AMC), HDAC1-MIER1 complex
T7 construct: We used HDAC complexes with the most components that could be stably expressed, with full-length proteins where feasible; made in house; host or cells: HEK293F
Method: as §1, §2, §3, §4, §5, §6, §7, §8, §9, §10, §11, §15, §16, §14

T4 sequence (Q13547 whole entry): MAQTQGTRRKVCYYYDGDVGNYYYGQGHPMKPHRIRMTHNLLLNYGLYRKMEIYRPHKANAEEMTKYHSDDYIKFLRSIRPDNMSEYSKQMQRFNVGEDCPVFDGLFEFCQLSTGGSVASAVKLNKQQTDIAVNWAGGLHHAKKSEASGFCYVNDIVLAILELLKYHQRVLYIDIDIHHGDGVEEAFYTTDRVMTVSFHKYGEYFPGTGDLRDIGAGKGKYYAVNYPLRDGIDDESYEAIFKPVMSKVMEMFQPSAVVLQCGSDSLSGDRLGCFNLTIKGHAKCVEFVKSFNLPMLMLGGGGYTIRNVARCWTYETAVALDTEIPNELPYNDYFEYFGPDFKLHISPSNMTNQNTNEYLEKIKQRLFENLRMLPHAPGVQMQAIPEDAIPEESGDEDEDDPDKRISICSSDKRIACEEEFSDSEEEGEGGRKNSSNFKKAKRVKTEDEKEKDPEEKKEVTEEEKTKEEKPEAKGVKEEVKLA
T4 sequence (Q13330 whole entry partner): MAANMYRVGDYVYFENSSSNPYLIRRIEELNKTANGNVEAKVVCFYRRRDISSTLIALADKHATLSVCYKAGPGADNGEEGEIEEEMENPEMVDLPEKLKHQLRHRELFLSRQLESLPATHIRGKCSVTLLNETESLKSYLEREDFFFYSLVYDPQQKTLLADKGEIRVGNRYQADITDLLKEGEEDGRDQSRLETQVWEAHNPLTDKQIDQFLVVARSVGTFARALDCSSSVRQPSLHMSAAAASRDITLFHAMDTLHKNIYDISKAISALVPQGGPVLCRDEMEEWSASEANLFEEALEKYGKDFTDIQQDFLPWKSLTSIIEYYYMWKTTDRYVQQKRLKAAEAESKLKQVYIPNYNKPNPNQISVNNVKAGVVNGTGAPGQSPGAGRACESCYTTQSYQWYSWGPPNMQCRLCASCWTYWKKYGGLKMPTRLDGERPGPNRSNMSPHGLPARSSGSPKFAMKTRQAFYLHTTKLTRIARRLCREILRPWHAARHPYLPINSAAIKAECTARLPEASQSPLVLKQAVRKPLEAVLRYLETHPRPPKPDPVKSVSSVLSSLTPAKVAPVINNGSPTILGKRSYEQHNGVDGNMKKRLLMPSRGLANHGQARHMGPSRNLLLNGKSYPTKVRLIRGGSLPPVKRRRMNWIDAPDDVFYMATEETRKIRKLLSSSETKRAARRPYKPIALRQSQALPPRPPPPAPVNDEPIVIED
T4 sequence (Q9UBB5 145-411 partner limits assumed): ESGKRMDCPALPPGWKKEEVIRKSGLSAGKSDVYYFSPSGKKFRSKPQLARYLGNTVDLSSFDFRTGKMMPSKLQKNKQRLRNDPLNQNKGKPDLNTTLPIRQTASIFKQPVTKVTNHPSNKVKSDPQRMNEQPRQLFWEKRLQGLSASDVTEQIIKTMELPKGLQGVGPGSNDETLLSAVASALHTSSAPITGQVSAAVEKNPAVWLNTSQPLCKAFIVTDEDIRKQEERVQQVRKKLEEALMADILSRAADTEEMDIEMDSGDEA
T4 sequence (Q09028 whole entry partner): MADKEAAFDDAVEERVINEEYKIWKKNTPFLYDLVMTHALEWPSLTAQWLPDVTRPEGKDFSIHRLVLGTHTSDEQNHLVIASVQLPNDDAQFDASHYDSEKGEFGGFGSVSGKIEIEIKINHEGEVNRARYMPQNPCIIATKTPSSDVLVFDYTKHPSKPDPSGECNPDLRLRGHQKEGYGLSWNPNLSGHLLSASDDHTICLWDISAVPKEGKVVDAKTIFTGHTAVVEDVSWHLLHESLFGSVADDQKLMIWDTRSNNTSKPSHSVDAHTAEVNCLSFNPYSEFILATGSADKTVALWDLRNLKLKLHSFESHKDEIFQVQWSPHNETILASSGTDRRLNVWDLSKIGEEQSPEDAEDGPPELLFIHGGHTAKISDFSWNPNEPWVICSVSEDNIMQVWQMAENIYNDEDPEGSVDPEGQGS
T4 sequence (Q16576 whole entry partner): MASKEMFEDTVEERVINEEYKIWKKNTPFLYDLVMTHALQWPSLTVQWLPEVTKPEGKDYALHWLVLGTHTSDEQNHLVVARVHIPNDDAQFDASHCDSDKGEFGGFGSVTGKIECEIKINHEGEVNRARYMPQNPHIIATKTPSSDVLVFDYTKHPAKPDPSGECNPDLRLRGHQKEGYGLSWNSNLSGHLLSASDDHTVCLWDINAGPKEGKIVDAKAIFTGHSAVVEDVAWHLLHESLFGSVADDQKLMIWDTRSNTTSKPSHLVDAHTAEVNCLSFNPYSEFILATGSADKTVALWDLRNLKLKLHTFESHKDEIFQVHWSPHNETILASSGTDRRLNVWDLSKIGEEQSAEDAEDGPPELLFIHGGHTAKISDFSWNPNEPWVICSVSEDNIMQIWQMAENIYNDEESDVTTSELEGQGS
T3 sequence (Q13547 whole entry): as the sequence (Q13547 whole entry) above
T3 sequence (Q9P2R6 1-565 partner limits assumed): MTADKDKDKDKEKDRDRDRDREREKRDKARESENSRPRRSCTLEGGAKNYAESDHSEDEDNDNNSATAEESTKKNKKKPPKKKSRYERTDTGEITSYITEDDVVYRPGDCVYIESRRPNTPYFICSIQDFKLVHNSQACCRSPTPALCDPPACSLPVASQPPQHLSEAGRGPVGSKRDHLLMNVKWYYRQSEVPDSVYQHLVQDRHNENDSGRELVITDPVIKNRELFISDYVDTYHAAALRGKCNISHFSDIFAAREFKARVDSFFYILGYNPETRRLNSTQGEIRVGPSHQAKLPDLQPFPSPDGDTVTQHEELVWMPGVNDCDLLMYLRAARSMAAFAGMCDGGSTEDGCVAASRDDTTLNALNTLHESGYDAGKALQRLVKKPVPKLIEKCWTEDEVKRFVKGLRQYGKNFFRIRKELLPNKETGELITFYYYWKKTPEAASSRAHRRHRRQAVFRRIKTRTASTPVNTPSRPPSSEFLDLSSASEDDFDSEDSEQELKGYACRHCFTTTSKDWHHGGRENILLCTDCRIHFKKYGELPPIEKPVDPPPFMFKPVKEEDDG
T5 sequence (Q13547 whole entry): as the sequence (Q13547 whole entry) above
T5 sequence (Q9H147 whole entry partner): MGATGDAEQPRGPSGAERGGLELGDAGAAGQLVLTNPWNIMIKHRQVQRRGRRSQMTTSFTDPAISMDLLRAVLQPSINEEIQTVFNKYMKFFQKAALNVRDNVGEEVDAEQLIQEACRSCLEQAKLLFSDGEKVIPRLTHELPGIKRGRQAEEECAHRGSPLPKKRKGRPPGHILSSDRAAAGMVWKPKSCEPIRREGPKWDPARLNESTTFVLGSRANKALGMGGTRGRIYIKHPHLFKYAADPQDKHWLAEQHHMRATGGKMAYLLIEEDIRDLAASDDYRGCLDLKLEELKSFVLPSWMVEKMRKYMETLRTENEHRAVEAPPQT
T5 sequence (Q6PJG2 628-887 partner limits assumed): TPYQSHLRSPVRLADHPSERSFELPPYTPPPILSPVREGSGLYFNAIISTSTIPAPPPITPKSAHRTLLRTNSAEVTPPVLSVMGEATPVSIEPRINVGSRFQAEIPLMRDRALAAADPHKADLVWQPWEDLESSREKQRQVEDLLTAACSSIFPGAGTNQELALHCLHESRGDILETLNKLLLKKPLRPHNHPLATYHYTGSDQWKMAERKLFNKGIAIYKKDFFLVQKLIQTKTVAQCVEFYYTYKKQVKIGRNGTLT
T7 sequence (Q13547 whole entry, other chains not shown): as the sequence (Q13547 whole entry) above
T7 sequence (Q8N108 whole entry partner, other chains not shown): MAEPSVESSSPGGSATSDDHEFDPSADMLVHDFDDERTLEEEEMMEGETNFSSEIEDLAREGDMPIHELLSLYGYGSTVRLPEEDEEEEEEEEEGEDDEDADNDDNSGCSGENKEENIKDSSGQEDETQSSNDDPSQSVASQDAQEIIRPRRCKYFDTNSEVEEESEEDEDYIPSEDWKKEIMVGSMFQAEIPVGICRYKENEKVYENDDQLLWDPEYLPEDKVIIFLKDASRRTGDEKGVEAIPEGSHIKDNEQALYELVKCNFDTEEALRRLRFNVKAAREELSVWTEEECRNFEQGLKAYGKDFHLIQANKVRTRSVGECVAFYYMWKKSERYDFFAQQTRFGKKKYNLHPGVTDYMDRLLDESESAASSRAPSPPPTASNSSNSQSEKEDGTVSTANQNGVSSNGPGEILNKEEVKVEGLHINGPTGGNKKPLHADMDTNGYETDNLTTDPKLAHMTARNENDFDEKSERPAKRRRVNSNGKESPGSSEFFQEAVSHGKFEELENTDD
T6 sequence (Q13547 whole entry, other chains not shown): as the sequence (Q13547 whole entry) above
T6 sequence (Q9UKL0 86-485 partner limits assumed, other chains not shown): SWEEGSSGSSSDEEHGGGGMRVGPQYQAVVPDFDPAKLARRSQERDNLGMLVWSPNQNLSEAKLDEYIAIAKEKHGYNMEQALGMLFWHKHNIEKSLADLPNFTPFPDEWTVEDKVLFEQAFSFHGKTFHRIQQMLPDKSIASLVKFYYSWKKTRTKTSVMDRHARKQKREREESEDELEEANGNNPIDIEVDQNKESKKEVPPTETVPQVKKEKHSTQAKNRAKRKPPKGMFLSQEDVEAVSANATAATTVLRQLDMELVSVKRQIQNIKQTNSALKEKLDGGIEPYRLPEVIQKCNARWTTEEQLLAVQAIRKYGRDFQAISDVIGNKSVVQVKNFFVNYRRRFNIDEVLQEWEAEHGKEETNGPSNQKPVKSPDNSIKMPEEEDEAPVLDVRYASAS

Structure (SMILES): Nc1ccc(-c2ccncc2)cc1NC(=O)c1cnc(N2CCNCC2)cn1 [Compound 2]
- IC50 ([1]; +IP6 (100 μM InsP6)): 1610 ± 100 nM
- IC50 ([1]; -IP6): 100 ± 8 nM
- IC50 ([2]; +IP6 (100 μM InsP6)): 26700 ± 3530 nM
- IC50 ([2]; -IP6): 52 ± 3 nM
- decrease of inhibition of complexes containing HDAC1/2 with InsP6 ([3]; 100 μM InsP6 vs none): > 500 fold
- increase in IC50 with InsP6 against HDAC1/2-CoREST, HDAC1-MIER1 and HDAC1-MiDAC ([3]; 100 μM InsP6 vs none): 275–28,600 fold
- IC50 ([4]; +IP6 (100 μM InsP6), read-out: IC50 HDAC1-RERE): 309000 ± 131000 nM
- IC50 ([4]; -IP6, read-out: IC50 HDAC1-RERE): > 300000 nM
- IC50 HDAC1-NuRD ([5]; +IP6 (100 μM InsP6)): N.I.
- IC50 HDAC1-NuRD ([5]; -IP6): N.I.
- IC50 ([6]; +IP6 (100 μM InsP6), read-out: IC50 HDAC1-MiDAC): 25200 ± 8840 nM
- IC50 ([6]; -IP6, read-out: IC50 HDAC1-MiDAC): 51 ± 17 nM
- IC50 ([7]; +IP6 (100 μM InsP6), read-out: IC50 HDAC1-CoREST): 8030 ± 510 nM
- IC50 ([7]; -IP6, read-out: IC50 HDAC1-CoREST): 14 ± 1 nM
- IC50 ([8]; +IP6 (100 μM InsP6), read-out: IC50 HDAC1-MIER1): 74000 ± 19000 nM
- IC50 ([8]; -IP6, read-out: IC50 HDAC1-MIER1): 16 ± 2 nM

Structure (SMILES): O=P(O)(O)O[C@H]1[C@H](OP(=O)(O)O)[C@@H](OP(=O)(O)O)[C@H](OP(=O)(O)O)[C@@H](OP(=O)(O)O)[C@H]1OP(=O)(O)O [InsP6, inositol hexaphosphate]
- effect on intrinsic HDAC activity of all complexes ([3]; complexes at 12.5 nM, Boc-Lys-(Ac)-AMC substrate): increased activity

Structure (SMILES): C/C=C1\NC(=O)[C@H]2CSSCC/C=C/[C@H](CC(=O)N[C@H](C(C)C)C(=O)N2)OC(=O)[C@H](C(C)C)NC1=O [Romidepsin, romidepsin, reference compound]
- effect of InsP6 on inhibition ([3]; 100 μM InsP6): no significant effects
- IC50 ([3]; range over HDAC1-MIER1, -MiDAC, -NuRD, -RERE, read-out: IC50, other HDAC1-containing complexes): 12 to 78 nM
- IC50 ([3]; range over these complexes, read-out: IC50, HDAC1/2-CoREST and HDAC3-SMRT): 1 to 3 nM
- IC50 ([4]; IC50 HDAC1-RERE, +IP6 (100 μM InsP6)): 66 ± 3 nM
- IC50 ([4]; IC50 HDAC1-RERE, -IP6): 78 ± 6 nM
- IC50 ([5]; +IP6 (100 μM InsP6)): 11 ± 1 nM
- IC50 ([5]; -IP6): 12 ± 1 nM
- IC50 ([6]; IC50 HDAC1-MIDAC, + InsP6, Figure 2): 21 nM
- IC50 ([6]; IC50 HDAC1-MIDAC, without InsP6, Figure 2): 21 nM
- IC50 ([6]; IC50 HDAC1-MiDAC, +IP6 (100 μM InsP6)): 21 ± 2 nM
- IC50 ([6]; IC50 HDAC1-MiDAC, -IP6): 21 ± 2 nM
- IC50 [7]: 2 nM
- IC50 ([7]; read-out: IC50 HDAC1-CoREST, +IP6 (100 μM InsP6)): 2 ± 0.1 nM
- IC50 ([7]; read-out: IC50 HDAC1-CoREST, -IP6): 2 ± 0.1 nM
- IC50 ([8]; IC50 HDAC1-MIER1, +IP6 (100 μM InsP6)): 21 ± 2 nM
- IC50 ([8]; IC50 HDAC1-MIER1, -IP6): 27 ± 2 nM
